Reference: article PMC2713251, “Discovery of novel inhibitors of Streptococcus pneumoniae based on the virtual screening with the homology-modeled structure of histidine kinase (VicK)” (BMC Microbiology, 2009)

Target: T1, VicK' (cytoplasmic HisKA and HATPase_c domains of histidine kinase VicK) (Streptococcus pneumoniae, UniProt A0A0H2ZNH9)
T1 construct: gene walK
Assay: Kinase-Glo luminescent assay of residual ATP (ATPase / autophosphorylation)
Type: biochemical
Details: read-out: IC50 (μM) for VicK' protein
Excerpt: Kinase-Glo luminescent assay of residual ATP (ATPase / autophosphorylation) on VicK' (cytoplasmic HisKA and HATPase_c domains of histidine kinase VicK)

T1 sequence (A0A0H2ZNH9 201-449): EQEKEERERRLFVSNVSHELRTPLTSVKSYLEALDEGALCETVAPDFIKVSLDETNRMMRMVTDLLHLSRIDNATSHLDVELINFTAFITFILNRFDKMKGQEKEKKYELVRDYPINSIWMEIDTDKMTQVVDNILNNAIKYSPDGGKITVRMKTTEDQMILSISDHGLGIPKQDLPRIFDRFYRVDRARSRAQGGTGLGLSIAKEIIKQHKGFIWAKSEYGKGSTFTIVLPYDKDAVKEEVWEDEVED

Row | SMILES | IC50 [µM]
1 | Nc1nonc1C(=O)NCCNCc1ccc(OCc2cccs2)cc1 [compound 1, Compound 1] | 542
2 | COc1ccc(-c2ccc(CNCCNC(=O)c3nonc3N)o2)cc1Cl [compound 2, Compound 2] | 562
3 | COc1ccc(CCNCc2ccc(-c3ccccc3)o2)cc1OC [compound 3, Compound 3] | 503
4 | Cn1nnnc1SCCCNCc1ccc(-c2ccccc2F)o1 [compound 4, Compound 4] | > 1000
5 | Cn1nnnc1SCCCNCc1ccc(-c2ccc(F)c(Cl)c2)o1 [compound 5, Compound 5] | 598
6 | c1ccc2[nH]c(Nc3ccc(-c4ccc(Nc5nc6ccccc6[nH]5)cc4)cc3)nc2c1 [compound 6, Compound 6] | 32.6
